Source: PMC12621189, “Optimization of Selective and CNS Penetrant Alkyne-Based TREK Inhibitors: The Discovery and Characterization of ONO-9517601 (VU6022856) and ONO-7927846 (VU6024391)” (Journal of Medicinal Chemistry, 2025)
pIC50: −log10 of the molar value.

What was measured:
hTREK-1 = biological target: T1, hTREK-1 (Homo sapiens, UniProt O95069); assay: hTREK-1 manual patch clamp assay; assay type: cell-based; details: human TREK-1, manual patch clamp; read-out: TREK-1 IC50 (human, MPC)
T1 construct: expressed in transfected cells
T1 sequence (O95069 1-426): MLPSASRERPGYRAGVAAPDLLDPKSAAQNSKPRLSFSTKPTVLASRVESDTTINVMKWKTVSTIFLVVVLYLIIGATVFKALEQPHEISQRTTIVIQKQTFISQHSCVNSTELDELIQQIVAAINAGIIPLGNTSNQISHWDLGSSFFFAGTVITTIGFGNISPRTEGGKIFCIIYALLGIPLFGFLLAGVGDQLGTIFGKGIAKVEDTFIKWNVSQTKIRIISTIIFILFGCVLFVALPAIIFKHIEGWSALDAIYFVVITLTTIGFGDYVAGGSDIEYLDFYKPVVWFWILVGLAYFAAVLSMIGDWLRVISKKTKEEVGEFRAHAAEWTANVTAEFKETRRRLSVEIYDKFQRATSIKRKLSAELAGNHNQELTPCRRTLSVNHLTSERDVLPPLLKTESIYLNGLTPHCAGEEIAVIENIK
Experimental: hTREK-1 and mTREK-1 patch clamp assay
CHO-K1 cells stably expressing hTREK-1 or CHO-K1 cells transiently expressing mouse TREK-1 (mTREK-1) were plated on glass coverslips, and voltage clamped in the whole-cell configuration of the patch clamp technique. Cells were voltage clamped at a holding potential of - 80 mV and the stepped to 0 mV for 500 msec. The voltage was subsequently ramped from -120mV to +80 mV over a 500 msec duration. This step-ramp protocol was repeated every 10 sec. The bathing solution contained the following: 135 mM NaCl, 5 mM KCl, 2 mM CaCl2, 1 mM MgCl2, 5 mM D-Glucose, 10 mM HEPES, 10 mM sucrose (adjusted to pH 7.4 with NaOH, 300 mosmol/kg H2O). The pipette solution contained the following: 135 mM KCl, 2 mM MgCl2, 1 mM EGTA, 10 mM HEPES, 2 mM Na2ATP (adjusted to pH 7.35 with KOH, 285 mosmol/kg H2O). Test […]
compounds were dissolved into the bathing solution. The effects of test compound on the currents were calculated at 0 mV using the following equations:
% inhibition = (1-post current/pre current) x 100
% inhibition vs compound concentrations were plotted in GraphPad Prism and calculated IC50. […]

ChromatoLogD = assay type: physicochemical
[1] = Liver microsome intrinsic clearance, mouse; assay type: in vitro ADME; details: mouse liver microsomes, predicted intrinsic clearance, read-out: LMS CLINT mouse
[2] = Plasma protein binding, rat; assay type: in vitro ADME; details: bound; for fraction unbound at 6 h, 5 µM: rat, plasma, pH 7.4, rat plasma, read-out: PPB rat (converted)
Experimental: Plasma protein binding and Brain homogenate binding: Determination of fraction unbound (f u) in plasma was conducted in vitro via equilibrium dialysis using HTDialysis (HTD) membrane plates. The top half of the plate was filled with 100 uL of Dubelco’s Phosphate Buffered Saline, pH 7.4 (DPBS). Compounds were diluted into plasma from each species (5 µM final concentration), which was aliquoted in triplicate to the ‘bottom half’ of the prepared HTD plate wells. The HTD plate was sealed and incubated for 6 hours at 37 °C. Following incubation, each well (both top and bottom halves) were transferred (20 µL) to the corresponding wells of a 96-shallow-well (V-bottom) plate. The daughter plates were then matrix-matched (DPBS side wells received equal volume of plasma, and plasma side wells received equal volume of DPBS), and extraction solution (120 µL; acetonitrile containing 50 nM carbamazepine as IS) was added to all wells of both daughter plates to precipitate protein and extract test article. The plates were then sealed and centrifuged (3500 rcf) for 10 minutes at ambient temperature. Supernatant (60 µL) from each well of the daughter plates was then transferred to the corresponding wells of new daughter plates (96-shallow-well, V bottom) containing water (Milli-Q, 60 µL/well), and the plates were sealed in preparation for LC-MS/MS analysis (see LC-MS/MS analysis method below).
The unbound fraction (f u) was calculated following the equation below, and mean values for each species were calculated from 3 replicates. […]
Fraction unbound for both plasma and brain samples was determined using Equation 4.
Equation 4 Determination of fraction unbound in plasma. […]

[3] = Rat in vivo PK (plasma clearance) in SAR tables; details: read-out: Rat CLp

Row | clearance [3] | CLint scaled at 1 µM ([1]; pH 7.4) | PPB rat ([2]; rat plasma) | SMILES | pIC50 (hTREK-1) | chromatographic logD (ChromatoLogD) | CLint scaled [1] | fraction unbound at 6 h, 5 µM [2]
1 |  |  |  | CC(=O)N1CC[C@@H](n2ncc(Cl)c2C(=O)Nc2ncc(C#Cc3ccc(F)cc3)cc2C)[C@H](F)C1 [Compound 11, 1-((3R,4R)-1-Acetyl-3-fluoropiperidin-4-yl)-4-chloro-N-(5-((4-fluorophenyl)ethynyl)-3-methylpyridin-2-yl)-1H-pyrazole-5-carboxamide] | 7.19 | 3.9 | 134 mL/min/kg | 0.083
2 | 9.43 mL/min/kg | 88 mL/min/kg |  | Cc1cc(C#Cc2ccccc2)cnc1NC(=O)c1cc(OC[C@@H]2COCCO2)ccc1Cl [Compound 7, (S)-5-((1,4-Dioxan-2-yl)methoxy)-2-chloro-N-(3-methyl-5-(phenylethynyl)pyridin-2-yl)benzamide] | 7.10 | 4.14 |  | 
3 | 8.9 mL/min/kg |  | 98.1% | Cc1cc(C#Cc2ccccc2)cnc1NC(=O)c1c(Cl)cnn1[C@H]1CCOC1 [Compound 15a, (S)-4-Chloro-N-(3-methyl-5-(phenylethynyl)pyridin-2-yl)-1-(tetrahydrofuran-3-yl)-1H-pyrazole-5-carboxamide] |  |  |  | ~0.02

Row | SMILES | clearance [3] | CLint scaled at 1 µM ([1]; pH 7.4) | PPB rat ([2]; rat plasma) | pIC50 (hTREK-1) | chromatographic logD (ChromatoLogD) | CLint scaled [1] | fraction unbound at 6 h, 5 µM [2]
4 | CC(=O)N1CCC(n2ncc(Cl)c2C(=O)Nc2ncc(C#Cc3ccccc3)cc2C)CC1 [Compound 10, 1-(1-Acetylpiperidin-4-yl)-4-chloro-N-(3-methyl-5-(phenylethynyl)pyridin-2-yl)-1H-pyrazole-5-carboxamide] | 27.7 mL/min/kg |  |  | 7.20 | 3.8 | 8 mL/min/kg | 0.013
